Data as given in PubChem BioAssay AID248 (DTP/NCI, 2004).
Values joined by “and” are separate entries in the source; they are usually repeats but may differ in a detail not shown here. Identical values can stand only once. Toxic doses and inconclusive results are not listed. Rule as the data show it: active = T/C of 150% or more; inactive = T/C below 125%.

System: L1210 leukemia ip in BDF1 mice, survival T/C
Test: NCI In Vivo Anticancer Drug Screen. Data for tumor model L1210 Leukemia (intraperitoneal) in B6D2F1 (BDF1) mice
Details: endpoint: mean survival time, higher = longer survival
In short: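 Each compound was tested against a transplantable tumor grown in mice. The endpoint was survival, with treated animals benchmarked against vehicle controls as a simple ratio.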

[1] = dose: 100.0 mg/kg/injection, schedule: Q01DX001 (ip), vehicle: saline
[2] = dose: 200.0 mg/kg/injection, schedule: Q01DX001 (ip), vehicle: saline
[3] = dose: 400.0 mg/kg/injection, schedule: Q01DX001 (ip), vehicle: saline
[4] = dose: 25.0 mg/kg/injection, schedule: Q04DX003 (ip), vehicle: saline with Tween-80
[5] = dose: 100.0 mg/kg/injection, schedule: Q01DX001 (ip), vehicle: Klucel (hydroxypropylcellulose) (HPC)
[6] = dose: 200.0 mg/kg/injection, schedule: Q01DX001 (ip), vehicle: Klucel (hydroxypropylcellulose) (HPC)
[7] = dose: 400.0 mg/kg/injection, schedule: Q01DX001 (ip), vehicle: Klucel (hydroxypropylcellulose) (HPC)
[8] = dose: 50.0 mg/kg/injection, schedule: Q01DX001 (ip), vehicle: saline
[9] = dose: 100.0 mg/kg/injection, schedule: Q01DX001 (ip), vehicle: carboxymethylcellulose (CMC)
[10] = dose: 200.0 mg/kg/injection, schedule: Q01DX001 (ip), vehicle: carboxymethylcellulose (CMC)
[11] = dose: 400.0 mg/kg/injection, schedule: Q01DX001 (ip), vehicle: carboxymethylcellulose (CMC)
[12] = dose: 100.0 mg/kg/injection, schedule: Q04DX003 (ip), vehicle: Klucel (hydroxypropylcellulose) (HPC)
[13] = dose: 200.0 mg/kg/injection, schedule: Q04DX003 (ip), vehicle: Klucel (hydroxypropylcellulose) (HPC)
[14] = dose: 400.0 mg/kg/injection, schedule: Q04DX003 (ip), vehicle: Klucel (hydroxypropylcellulose) (HPC)
[15] = dose: 100.0 mg/kg/injection, schedule: Q04DX003 (ip), vehicle: saline with Tween-80
[16] = dose: 200.0 mg/kg/injection, schedule: Q04DX003 (ip), vehicle: saline with Tween-80
[17] = dose: 100.0 mg/kg/injection, schedule: Q01DX009 (ip), vehicle: Klucel (hydroxypropylcellulose) (HPC)
[18] = dose: 200.0 mg/kg/injection, schedule: Q01DX009 (ip), vehicle: Klucel (hydroxypropylcellulose) (HPC)
[19] = dose: 400.0 mg/kg/injection, schedule: Q01DX009 (ip), vehicle: Klucel (hydroxypropylcellulose) (HPC)
[20] = dose: 100.0 mg/kg/injection, schedule: Q01DX009 (ip), vehicle: saline with Tween-80
[21] = dose: 200.0 mg/kg/injection, schedule: Q01DX009 (ip), vehicle: saline with Tween-80
[22] = dose: 400.0 mg/kg/injection, schedule: Q01DX009 (ip), vehicle: saline with Tween-80
[23] = dose: 100.0 mg/kg/injection, schedule: Q01DX001 (ip), vehicle: other
[24] = dose: 200.0 mg/kg/injection, schedule: Q01DX001 (ip), vehicle: other
[25] = dose: 400.0 mg/kg/injection, schedule: Q01DX001 (ip), vehicle: other

Measured: T/C

CCOC(=O)N(c1ccccc1)C1OCC(OC(C)=O)C(OC(C)=O)C1OC(C)=O (configuration not stated)
inactive: dose: 100.0 mg/kg/injection, schedule: Q01DX009 (ip), vehicle: saline 97 % of control | dose: 100.0 mg/kg/injection, schedule: Q04DX003 (ip), vehicle: water 97 % of control | dose: 200.0 mg/kg/injection, schedule: Q01DX009 (ip), vehicle: saline 93 % of control | dose: 200.0 mg/kg/injection, schedule: Q04DX003 (ip), vehicle: water 97 % of control | dose: 400.0 mg/kg/injection, schedule: Q01DX009 (ip), vehicle: saline 94 % of control | dose: 400.0 mg/kg/injection, schedule: Q04DX003 (ip), vehicle: water 94 % of control

O=C(O)c1cc(Br)cc(Br)c1O
inactive: [1] 123 % of control | dose: 100.0 mg/kg/injection, schedule: Q04DX002 (ip), vehicle: saline with Tween-80 91 % of control | [2] 105 % of control | dose: 200.0 mg/kg/injection, schedule: Q04DX002 (ip), vehicle: saline with Tween-80 100 % of control | [3] 109 % of control | dose: 400.0 mg/kg/injection, schedule: Q04DX002 (ip), vehicle: saline with Tween-80 88 % of control

Clc1ccccc1C(N1CCCCC1)C(Cl)(Cl)Cl (configuration not stated)
inactive: dose: 100.0 mg/kg/injection, schedule: Q04DX002 (ip), vehicle: saline 92 % of control | dose: 200.0 mg/kg/injection, schedule: Q04DX002 (ip), vehicle: saline 90 % of control | dose: 400.0 mg/kg/injection, schedule: Q04DX002 (ip), vehicle: saline 92 % of control

O=C(OCCCl)C1C2CCC(O2)C1C(=O)OCCCl (configuration not stated)
inactive: dose: 1.56 mg/kg/injection, schedule: Q04DX002 (ip), vehicle: Klucel (hydroxypropylcellulose) (HPC) 103 % of control

O=C(NCCCl)Nc1cccnc1
inactive: dose: 6.25 mg/kg/injection, schedule: Q01DX009 (ip), vehicle: saline 104 % of control | dose: 12.5 mg/kg/injection, schedule: Q01DX009 (ip), vehicle: saline 101 % of control | dose: 12.5 mg/kg/injection, schedule: Q04DX003 (ip), vehicle: saline with Tween-80 102 % of control | dose: 25.0 mg/kg/injection, schedule: Q01DX009 (ip), vehicle: saline 105 % of control | [4] 96 % of control

CS(=O)(=O)OCCCCCCOCCCCOCCCCOCCCCCCOS(C)(=O)=O
inactive: [5] 92 % of control | [6] 93 % of control | [7] 93 % of control

c1ccc(P(OCCCCOP(c2ccccc2)c2ccccc2)c2ccccc2)cc1
inactive: [8] 95 % of control | [9] 103 % of control | [1] 97 % of control | [10] 114 % of control | [2] 86 % of control | [11] 103 % of control | [3] 95 % of control

CCOC(=O)c1cnc[nH]c1=O
inactive: [12] 100 % of control | [13] 100 % of control | [14] 87 % of control

COC(=O)COc1ccc(Cl)cc1C(=O)O
inactive: [15] 94 % of control | [16] 92 % of control

CN(C)C(=O)Nc1cccc2nsnc12
inactive: [17] 106 % of control | [18] 104 % of control | [19] 102 % of control

CC(=O)C=P(c1ccccc1)(c1ccccc1)c1ccccc1
inactive: dose: 50.0 mg/kg/injection, schedule: Q01DX001 (ip), vehicle: carboxymethylcellulose (CMC) 113 % of control | [9] 97 % of control | [10] 101 % of control

COc1cccc2c(Cl)c(CCl)c(C)nc12
inactive: dose: 12.5 mg/kg/injection, schedule: Q01DX009 (ip), vehicle: saline with Tween-80 97 % of control | dose: 25.0 mg/kg/injection, schedule: Q01DX009 (ip), vehicle: saline with Tween-80 97 % of control | [4] 92 % of control | dose: 50.0 mg/kg/injection, schedule: Q01DX009 (ip), vehicle: saline with Tween-80 92 % of control | dose: 50.0 mg/kg/injection, schedule: Q04DX003 (ip), vehicle: saline with Tween-80 97 % of control | [15] 94 % of control and 96 % of control

N=C(CC(=O)Nc1ccccc1)c1ccccc1
inactive: [8] 101 % of control | [1] 96 % of control | [2] 102 % of control | [3] 101 % of control

CC(=O)Nc1cc(C(=O)O)cc(C(F)(F)F)c1
inactive: [20] 96 % of control | [15] 96 % of control | [21] 100 % of control | [16] 102 % of control | [22] 97 % of control | dose: 400.0 mg/kg/injection, schedule: Q04DX003 (ip), vehicle: saline with Tween-80 94 % of control

OC(CNc1ccccc1)CN1CCOCC1 (configuration not stated)
inactive: [23] 101 % of control | dose: 100.0 mg/kg/injection, schedule: Q04DX003 (ip), vehicle: saline 100 % of control | [24] 96 % of control | dose: 200.0 mg/kg/injection, schedule: Q04DX003 (ip), vehicle: saline 94 % of control | [25] 105 % of control | dose: 400.0 mg/kg/injection, schedule: Q04DX003 (ip), vehicle: saline 94 % of control

CCOC(=O)N1C2C(c3ccccc3)=NC(C)(C)N2C(c2ccc([N+](=O)[O-])cc2)N1C(=O)OCC (configuration not stated)
inactive: [23] 93 % of control | [24] 102 % of control | [25] 91 % of control

Cc1n[nH]c(=S)[nH]c1=S
inactive: [15] 97 % of control

Cc1ccc([N+](=O)[O-])cc1NC(=O)Nc1cccc(O)c1
inactive: [17] 95 % of control | [18] 86 % of control | [19] 93 % of control

O=C1c2c(cccc2NCCO)Cc2cccc(NCCO)c21
inactive: [5] 102 % of control | [12] 98 % of control | [6] 104 % of control | [13] 93 % of control | [7] 96 % of control | [14] 96 % of control

C1CN(C[C@H]2COC[C@@H](CN3CCOCC3)O2)CCO1
inactive: dose: 75.0 mg/kg/injection, schedule: Q04DX003 (ip), vehicle: saline 98 % of control | dose: 150.0 mg/kg/injection, schedule: Q04DX003 (ip), vehicle: saline 106 % of control | dose: 300.0 mg/kg/injection, schedule: Q04DX003 (ip), vehicle: saline 95 % of control

COc1cc2cnccc2cc1OCc1ccccc1
inactive: dose: 25.0 mg/kg/injection, schedule: Q01DX009 (ip), vehicle: water 96 % of control | dose: 50.0 mg/kg/injection, schedule: Q01DX009 (ip), vehicle: water 97 % of control | dose: 100.0 mg/kg/injection, schedule: Q01DX009 (ip), vehicle: water 100 % of control

CCCCN(CC)C(=S)S[Te](SC(=S)N(CC)CCCC)(SC(=S)N(CC)CCCC)SC(=S)N(CC)CCCC
inactive: [9] 104 % of control | [10] 101 % of control | [11] 89 % of control

COc1ccccc1/C=C(\SS/C(=C/c1ccccc1OC)C(=O)O)C(=O)O
inactive: [1] 120 % of control | [2] 91 % of control

CS(=O)(=O)OCCCc1nc2ccccc2n1S(C)(=O)=O
inactive: [9] 110 % of control | [10] 110 % of control | [11] 104 % of control

CCCCn1c(Cl)c(C(=O)O)c2ccccc21
inactive: dose: 50.0 mg/kg/injection, schedule: Q04DX003 (ip), vehicle: Klucel (hydroxypropylcellulose) (HPC) 94 % of control | [12] 91 % of control | [13] 90 % of control

O=C1C(=O)N2c3ccccc3CCc3cccc1c32
inactive: dose: 100.0 mg/kg/injection, schedule: Q01DX001 (ip), vehicle: saline with Tween-80 103 % of control | [20] 96 % of control | dose: 200.0 mg/kg/injection, schedule: Q01DX001 (ip), vehicle: saline with Tween-80 93 % of control | [21] 100 % of control | dose: 400.0 mg/kg/injection, schedule: Q01DX001 (ip), vehicle: saline with Tween-80 97 % of control | [22] 100 % of control

CCC(C)c1nc2c([nH]1)c(=O)n(C)c(=O)n2C (configuration not stated)
inactive: [8] 110 % of control | [1] 101 % of control | [2] 101 % of control | [3] 104 % of control

CCCCCC(C)(O)CCCCC
inactive: [9] 101 % of control | [10] 97 % of control | [11] 97 % of control
